# Like-named read-outs stand apart in the source and are kept apart here.
# Columns and labels:
# [1] = type: in vivo, Swiss-Webster mice
# Excerpt: Formulated material was used in the single dose in vivo ADME characterization studies in Sprague Dawley rats and Swiss-Webster mice with 14C-labeled 3,4,3-L1(1,2-HOPO).
# Pharmacokinetic parameters and disposition/biodistribution of 3,4,3-L1(1,2-HOPO) were characterized in vivo (with the aid of two 14C labels on the spermine backbone of the parent product) in two non-GLP studies using Swiss-Webster mice and Sprague Dawley rats. The study designs for these two studies are shown in TABLE 5.1 and TABLE 5.2, respectively. Groups of six mice (3 male, 3 female) were given a single dose of [14C]-3,4,3-L1(1,2-HOPO) via iv, ip, or po routes, respectively. An additional group of six mice (3 male, 3 female) were administered the 14C-labeled API with permeability enhancer (10% sodium oleate) by oral gavage (po). Similarly, groups of six rats (3 male, 3 female) were administered a single iv dose of the 14C-labeled API or a single po dose of the 14C-labeled API with 10% sodium oleate. In each of these studies, samples were collected at scheduled time points up to 24 hr post-dose and analyzed for 14C content using liquid scintillation counting. Blood, liver, kidney, feces and urine were collected and analyzed from the mice. Blood, brain, liver, kidney, lungs, spleen, skeletal muscle tissues, gastrointestinal (GI) tract samples, carcasses, feces, and urine were collected and analyzed from the rats.
# [2] = Plasma protein binding, dog; type: in vitro ADME; settings: tested at 10 μg/ml
# Protocol: Plasma protein binding differed across species; it was greatest in dog (95%), intermediate in human (29%), and lowest in rat (5%) when tested at 10 μg/ml.
# CYP2C9 = CYP2C9 (Homo sapiens, UniProt P11712); experiment: CYP inhibition; type: in vitro ADME
# CYP2C19 = CYP2C19 (Homo sapiens, UniProt P33261); experiment: CYP inhibition; type: in vitro ADME
# Stability in plasma = type: in vitro ADME
# [3] = GLP single oral dose cardiovascular assessment in beagle dogs (electrocardiogram, blood pressure); type: in vivo; settings: 37.5, 75, or 150 mg/kg single oral dose
# Protocol: Cardiovascular parameters in beagle dogs after a single oral administration of formulated capsules was determined in a GLP study
# Electrocardiograms and blood pressure were evaluated from 3 male and 3 female beagle dogs per dose group (0, 37.5, 75, or 150 mg/kg) at pretest, 1 and 4 hours post-dose, and 7 days after a single oral dose of formulated material (TABLE 8.1). […] Instances of increased or decreased blood pressure (hypertension or hypotension) in various dogs were considered sporadic or due to stress, excitement, or struggling during the time of recording and not test article related. In summary, electrocardiogram and blood pressure assessments in beagle dogs raised no cardiovascular safety concerns.
# [4] = 7-day oral gavage study in Sprague Dawley rats (SRI No. M801-10); type: in vivo
# [5] = Double-Sink PAMPA permeability assay with permeation enhancers (flux ratio); type: in vitro ADME; settings: compared with reference compound Ranitidine
# Protocol: The objective of the analytical study described in Part C of this report was to assess the feasibility of enhancing the permeability of the active pharmaceutical ingredient 3,4,3-L1(1,2-HOPO) using oral permeation enhancers. Evaluation was performed using an in vitro pK assay based on the Double-Sink™ PAMPA technology developed by pION, Inc.
# The permeability enhancement study was performed in two stages. In the first stage (TABLE 10.1), 15 formulations were prepared and screened. The second stage (TABLE 10.2) was performed to refine the concentrations of the permeability enhancers that seemed to display permeability enhancement in the first screening. The screening conditions for both stages are listed below. The sample solutions were stored throughout the study in 20 mL clear scintillation glass vials with polypropylene cap and pulp foil liner, wrapped in aluminum foil.
# • Test Solutions: Vehicles containing the permeation enhancers were prepared by weighing the adequate quantity of enhancer and dissolving it into 100 mL of purified water to reach the designated concentration. Test solutions were then prepared by weighing 10 mg of 3,4,3-L1(1,2-HOPO), dissolving it into 10 mL of each of the vehicles to reach a concentration of 1 mg/mL (purified water was used for the control solution). The final pH and clarity of each solution were recorded. […]
# [6] = po, female mice, formulated with sodium oleate
# [7] = po, female mice, without sodium oleate
# [8] = po, male mice, formulated with sodium oleate
# [9] = po, male mice, without sodium oleate
# Sequence of CYP2C9 (P11712 whole entry): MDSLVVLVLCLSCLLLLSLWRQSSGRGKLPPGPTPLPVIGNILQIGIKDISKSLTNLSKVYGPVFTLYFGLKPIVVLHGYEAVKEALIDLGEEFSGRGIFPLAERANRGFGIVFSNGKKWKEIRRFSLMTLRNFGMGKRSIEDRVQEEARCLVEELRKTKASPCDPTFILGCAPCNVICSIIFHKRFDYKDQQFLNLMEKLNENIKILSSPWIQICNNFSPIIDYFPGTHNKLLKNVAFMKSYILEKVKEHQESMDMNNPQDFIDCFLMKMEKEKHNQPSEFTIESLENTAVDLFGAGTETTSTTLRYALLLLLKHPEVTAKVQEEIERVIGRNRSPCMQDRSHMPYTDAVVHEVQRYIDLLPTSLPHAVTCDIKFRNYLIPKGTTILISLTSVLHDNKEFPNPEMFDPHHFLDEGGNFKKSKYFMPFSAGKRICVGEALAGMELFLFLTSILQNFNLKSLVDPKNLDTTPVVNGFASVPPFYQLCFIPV
# Sequence of CYP2C19 (P33261 whole entry): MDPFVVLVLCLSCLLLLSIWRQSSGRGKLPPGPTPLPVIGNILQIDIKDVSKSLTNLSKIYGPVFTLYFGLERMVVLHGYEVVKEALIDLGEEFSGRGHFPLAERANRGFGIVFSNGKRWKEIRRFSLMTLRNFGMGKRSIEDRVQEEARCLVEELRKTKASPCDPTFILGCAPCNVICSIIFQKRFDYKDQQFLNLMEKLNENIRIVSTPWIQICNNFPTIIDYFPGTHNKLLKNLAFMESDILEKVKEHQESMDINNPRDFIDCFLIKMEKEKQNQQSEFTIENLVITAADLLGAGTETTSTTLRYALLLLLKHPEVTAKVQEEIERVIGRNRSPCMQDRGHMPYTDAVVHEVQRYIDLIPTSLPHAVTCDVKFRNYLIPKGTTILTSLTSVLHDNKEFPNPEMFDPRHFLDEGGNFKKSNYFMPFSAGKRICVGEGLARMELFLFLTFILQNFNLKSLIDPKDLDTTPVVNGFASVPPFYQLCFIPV
smiles,measurement,setting,value
"O=C(NCCCN(CCCCN(CCCNC(=O)c1cccc(=O)n1O)C(=O)c1cccc(=O)n1O)C(=O)c1cccc(=O)n1O)c1cccc(=O)n1O [3,4,3-L1(1,2-HOPO)]",oral bioavailability (F) of radioactive compound,[1]; female mice,2.6%
same,oral bioavailability (F) of radioactive compound,[1]; male mice,1.2%
same,enhancement of exposure parameters with sodium oleate,[1]; mice,2- to 3 fold
same,oral bioavailability improvement with sodium oleate,[1]; mice,about 2 fold
same,Tmax,"[1]; oral dose, rodents (mice)",~42 min
same,AUC calculated over 2 hr posttreatment,[1]; [6],35.1±18.9 min Pg-eq/ml
same,Cmax,[1]; [6],1.4 Pg-eq/ml
same,AUC calculated over 2 hr posttreatment,[1]; [7],23.0±15.4 min Pg-eq/ml
same,Cmax,[1]; [7],0.55 Pg-eq/ml
same,AUC calculated over 2 hr posttreatment,[1]; [8],17.4±6.7 min Pg-eq/ml
same,Cmax,[1]; [8],0.93 Pg-eq/ml
same,AUC calculated over 2 hr posttreatment,[1]; [9],8.3±6.2 min Pg-eq/ml
same,Cmax,[1]; [9],0.32 Pg-eq/ml
same,Cmax improvement with sodium oleate,"[1]; po, mice",approximately 3 fold
same,Plasma protein binding,[2],95%
same,inhibition of CYP2C9 activity,CYP2C9,did not inhibit
same,inhibition of CYP2C19 activity,CYP2C19,did not inhibit
same,stability in plasma,Stability in plasma,stable
same,"electrocardiographic, heart rate, or blood pressure findings",[3],"no electrocardiographic, heart rate, or blood pressure findings"
same,renal findings,[4]; 7 days of oral gavage,no renal findings
same,soft stools or diarrhea,[4]; oral gavage 400-1300 mg/kg (532-1732 μmol/kg) for 7 days,not observed
same,permeability (PAMPA),[5],very low permeability
